Source: patent US12558345B2, “CHK1/2 inhibitors for use in the treatment of neuroblastomas and/or soft tissue sarcomas” (Eli Lilly and Company, priority 2015, dated 2026)
Counter-ions that a name gives are not always drawn.

Assays:
[1] = tested on: RD, SJCRH30, Saos-2 and RD-ES cell lines; assay: In Vitro Response of Pediatric Cell Lines (western blot); assay type: cell-based; conditions: 24 hours at 5 and 50 nM
Procedure: Cellular lysates can be obtained from embryonal and alveolar rhabdomyosarcoma (RD and SJCRH30, respectively), osteosarcoma (Saos-2), and Ewing's sarcoma (RD-ES) cell lines treated with 5-(5-(2-(3-aminopropoxy)-6-methoxyphenyl)-1H-pyrazol-3-ylamino)pyrazine-2-carbonitrile methanesulfonic acid monohydrate (Example 5) for 24 hours at 5 and 50 nM final concentration.
A western blot can be run using the cellular lysates described above. […] Higher levels of DNA damage can be observed with CHK1 inhibition. Accordingly, the levels of gammaH2AX, a signal for DNA damage, increase upon treatment with 5-(5-(2-(3-aminopropoxy)-6-methoxyphenyl)-1H-pyrazol-3-ylamino)pyrazine-2-carbonitrile methanesulfonic acid monohydrate (Example 5).

[2] = tested on: KELLY human NBM cancer cell xenograft; assay: Xenograft Tumor Model KELLY; assay type: in vivo, mouse; conditions: comparator day 49, p-value <0.001
Procedure: (§1) The following protocol can be used to measure reductions in tumor volume in response to an active pharmaceutical ingredient. Expand human NBM cancer cells SH-SY5Y (ATCC, #CRL-2226) in culture, harvest, and inject 5×10^6 cells in 200 μL of 1:1 solution of HBSS and Matrigel® subcutaneously into the right rear flank of female CD-1 nu/nu mice (20-24 g, Charles River Laboratories). Expand human NBM cancer cells KELLY (Sigma-#92110411) in culture, harvest, and inject 5×10^6 cells in 200 μL of 1:1 solution of HBSS and Matrigel® subcutaneously into the right rear flank of female CB-17 SCID mice (20-24 g, Charles River Laboratories). Expand human NBM cancer cells IMR-32 (ATCC, #CCL-127) in culture, harvest, and inject 5×10^6 cells in 200 μL of 1:1 solution of HBSS and Matrigel® subcutaneously into the right rear flank of female CB-17 SCID mice (20-24 g, Charles River Laboratories).
(§2) For all “ST” models (encompassing RMS and LMS), patient-derived xenografts are established from viable human tumor tissue and are serially passaged in animals a limited number of times to maintain tumor heterogeneity. […] Tumor response is determined by tumor volume measurement performed twice per week during the course of treatment.

[3] = tested on: ST550 LMS patient-derived xenograft; assay: Xenograft Tumor Model ST550; assay type: in vivo, mouse; conditions: comparator day 31, p-value 0.712
Procedure: (§3) For all “ST” models (encompassing RMS and LMS), patient-derived xenografts are established from viable human tumor tissue and are serially passaged in animals a limited number of times to maintain tumor heterogeneity. In subcutaneous models, athymic nude mice (Crl:NU(NCr)-Foxn1nu) or CB-17 SCID mice (CRL-CB17/Icr-Prkdcscid/IcrIcoCrl) are injected or implanted unilaterally into the flank with tumor fragments harvested from host animals, each implanted from a specific passage lot. For all studies, measure tumor growth and body weight twice per week beginning on the seventh day after implantation. When tumor size reaches 150-300 mm^3, randomize animals and group into groups of 4-7 animals. Prepare test compound in an appropriate vehicle (e.g. vehicle can be 20% Captisol® in sterile water) and administer subcutaneously for three consecutive days followed by a four day dosing holiday and repeat for a minimum of four weeks. Tumor response is determined by tumor volume measurement performed twice per week during the course of treatment.

[4] = tested on: SH-SY5Y human NBM cancer cell xenograft; assay: Xenograft Tumor Model SH-SY5Y; assay type: in vivo, mouse; conditions: comparator day 28, 8 mg/kg dose, p-value <0.001
Procedure: as §1, §2

[5] = tested on: CTG-0243 OS patient-derived xenograft; assay: Xenograft Tumor Model CTG-0243; assay type: in vivo, mouse; conditions: comparator day 22, p-value 0.089
Procedure: (§4) The efficacy of 5-(5-(2-(3-aminopropoxy)-6-methoxyphenyl)-1H-pyrazol-3-ylamino)pyrazine-2-carbonitrile methanesulfonic acid monohydrate is measurable in vivo in mouse models of neuroblastomas and human pediatric and adult sarcomas. 5-(5-(2-(3-Aminopropoxy)-6-methoxyphenyl)-1H-pyrazol-3-ylamino)pyrazine-2-carbonitrile methanesulfonic acid monohydrate (10 mg/kg) can be administered subcutaneously to nude mice bearing either cell-derived xenografts (CDX) or patient-derived xenografts (PDX) of human rhabdomyosarcoma, desmoplastic small round cell tumor (DSRCT), osteosarcoma, and Ewing's sarcoma using a 3 day on, 4 day off b.i.d. dosing schedule. Tumor volume and body weight can be measured two times per week. Tumor-specific parameters can be evaluated by immumohistochemistry. […]
as §2

[6] = tested on: ST162 patient-derived xenograft; assay: Xenograft Tumor Model ST162; assay type: in vivo, mouse; conditions: ST162, LMS, comparator day 39, p-value <0.001
Procedure: as §3

[7] = tested on: CTG-1116 RMS patient-derived xenograft; assay: Xenograft Tumor Model CTG-1116; assay type: in vivo, mouse; conditions: comparator day 17, p-value <0.001
Procedure: as §4, §2

[8] = tested on: Calu-6 lung tumor xenograft; assay: Human Tumor Xenograft Models, with gemcitabine: Calu-6; assay type: in vivo, mouse
Procedure: The ability of CHK1 inhibitors to effect tumor killing can be determined in vivo using the Calu-6 lung and HT-29 colon tumor xenograft efficacy models. Calu-6 lung cancer cells (ATCC) are cultured in growth media (MEM w/ Earle's salts (Invitrogen) with L-glutamine (Gibco™) supplemented with 10% (v/v) heat inactivated FBS (Gibco™), 1×MEM non-essential amino acids (Gibco™), 1×sodium pyruvate (Gibco™)) and HT-29 colon cancer cells (ATCC) are cultured in growth media, (McCoy's 5A medium (Gibco™) supplemented with 10% FBS (Gibco™)) and expanded. Cells are harvested and washed twice with phosphate buffered saline and 5×10^6 cells (HT-29) or 1×10^6 cells (Calu-6) in growth media (without serum) are mixed with equal volume of BD Matrigel™ matrix (BD Bioscience, Franklin, NJ), then injected subcutaneously into the flank of nude mice (CD-1 nu/nu, from Charles River Labs, Wilmington, MA). At about day 16 after implant (150-200 mm^3), gemcitabine is formulated fresh in saline daily and administered to animals by intraperitoneal route at 60 mg/kg dose. […] Tumor response is determined by tumor volume measurement performed twice a week during the course of treatment. Tumor growth inhibition (TGI) is calculated as the percent reduction in mean tumor size of a compound treated group from the mean tumor size of the vehicle-treated control group.

| Compound | CHK1 protein levels [1] | levels of gammaH2AX (signal for DNA damage) [1] | levels of phospho-AKT [1] | phospho-CHK1 (S345) levels [1] | levels of phospho-ERK 1/2 (T202/Y204) ([1]; RD-ES non-responding) | phospho-hnRNP-C levels ([1]; unaffected in the RD-ES cell line) | % Regression [2] | % T/C [3] | % Regression [4] | % T/C [5] | % Regression [6] | % T/C [7] | increase in tumor growth inhibition over gemcitabine alone ([8]; Calu-6, combination with gemcitabine) | anti-tumor activity ([8]; Calu-6, dosed alone and in combination with gemcitabine 60 mg/kg ip, compound iv +24 hours, Q3Dx4) |
| --- | --- | --- | --- | --- | --- | --- | --- | --- | --- | --- | --- | --- | --- | --- |
| COc1cccc(OCCCN)c1-c1cc(Nc2cnc(C#N)cn2)n[nH]1 [Example 5, 5-(5-(2-(3-Aminopropoxy)-6-methoxyphenyl)-1H-pyrazol-3-ylamino)pyrazine-2-carbonitrile methanesulfonic acid monohydrate] | do not change | increase | do not appear to change | increase | increase in three out of four cell lines | increase | −88% | 94% | −21% | 43% | −93% | 8% | – | – |
| COc1cccc(OCCCN)c1-c1cc(Nc2cnc(C#N)cn2)n[nH]1 [Example 2, 5-(5-(2-(3-Aminopropoxy)-6-methoxyphenyl)-1H-pyrazol-3-ylamino)pyrazine-2-carbonitrile dihydrogen chloride salt] | – | – | – | – | – | – | – | – | – | – | – | – | up to a six-fold increase | excellent dose dependent anti-tumor activity |
